Earlier results in patent US20090233811A1, “Manufacture of Array Chips” (Randox Laboratories Ltd., priority 2005, published 2009).

conditions: data from Sigma-Aldrich Handbook of Stains, Dyes and Indicators

SMILES	Solubility in water
CC(=O)Nc1cc(S(=O)(=O)[O-])cc2cc(S(=O)(=O)[O-])c(/N=N/c3ccccc3)c(O)c12.[Na+].[Na+] [Acid Red 1]	60 mg/mL
O=S(=O)([O-])c1cc(/N=N/c2ccc(O)cc2)ccc1C=Cc1ccc(/N=N/c2ccc(O)cc2)cc1S(=O)(=O)[O-].[Na+].[Na+] [Brilliant Yellow]	1 mg/mL
O=S(=O)([O-])c1cc(O)c2c(O)c(N=Nc3ccccc3)c(S(=O)(=O)[O-])cc2c1.[Na+].[Na+] [Chromotrope 2R]	200 mg/mL
O=S(=O)([O-])c1cc(S(=O)(=O)[O-])c2c(N=Nc3ccc(N=Nc4ccccc4)cc3)c(O)ccc2c1.[Na+].[Na+] [Brilliant Crocein MOO]	50 mg/mL

Further lines, results first:

Solubility in water	SMILES
300 mg/mL	O=C([O-])C1=NN(c2ccc(S(=O)(=O)[O-])cc2)C(=O)C1N=Nc1ccc(S(=O)(=O)[O-])cc1.[Na+].[Na+].[Na+] (stereo not drawn) [Tartrazine]
40 mg/mL	O=S(=O)([O-])c1ccc2c(/N=N/c3ccccc3)c(O)ccc2c1.[Na+] [Crocein Orange]
